This note sets out measurements from US10344032B2, “Agents for treating neurogenic inflammation and neuropathic hyperalgesia related disorders” (PÉCSI TUDOMÁNYEGYETEM, priority 2014, dated 2019).

Counter-ions that a name gives are not always drawn.

One may read the melting point as the temperature, or range, at which the solid turns liquid.

`Cc1c(C)n(CCCN(C)C)c2ncnc(NCCc3ccc(N)cc3)c12` (as salt: salt) [Example 12, [2-(4-Amino-phenyl)-ethyl]-[7-(3-dimethylamino-propyl)-5,6-dimethyl-7H-pyrrolo[2,3-d]pyrimidin-4-yl]-amine]: the melting point fell in the range of 237.2 to 239.9 °C. Turning to `Cc1c(C)n(CCCN(C)C)c2ncnc(NCCc3ccccc3)c12` (as salt: salt) [Example 14, [7-(3-Dimethylamino-propyl)-5,6-dimethyl-7H-pyrrolo[2,3-d]pyrimidin-4-yl]-phenethyl-amine], the melting point lay in the range of 236 to 238 °C.

Turning to `COc1ccc(CCNc2ncnc3c2c(C)c(C)n3CCCN(C)C)cc1OC` (as salt: salt) [Example 15, [2-(3,4-Dimethoxy-phenyl)-ethyl]-[7-(3-dimethylamino-propyl)-5,6-dimethyl-7H-pyrrolo[2,3-d]pyrimidin-4-yl]-amine], the melting point is 156 to 158.2 °C. In turn, `Cc1c(C)n(CCCN(C)C)c2ncnc(NCCc3ccccc3Cl)c12` (as salt: salt) [Example 16, [2-(2-Chloro-phenyl)-ethyl]-[7-(3-dimethylamino-propyl)-5,6-dimethyl-7H-pyrrolo[2,3-d]pyrimidin-4-yl]-amine] gave a melting point of 245 to 248 °C. As for `Cc1c(C)n(CCCN(C)C)c2ncnc(NCCc3cccc(F)c3)c12` (as salt: salt) [Example 17, [7-(3-Dimethylamino-propyl)-5,6-dimethyl-7H-pyrrolo[2,3-d]pyrimidin-4-yl]-[2-(3-fluoro-phenyl)-ethyl]-amine], the figure is 239 to 240.2 °C; as for `Cc1c(C)n(CCCN(C)C)c2ncnc(NCC(O)c3ccccc3)c12` (stereo not shown) (as salt: salt) [Example 18, 2-[7-(3-Dimethylamino-propyl)-5,6-dimethyl-7H-pyrrolo[2,3-d]pyrimidin-4-ylamino]-1-phenyl-ethanol], 209 to 212.9 °C; as for `COc1ccc(CCNc2ncnc3c2ccn3Cc2cncc(Br)c2)cc1OC` (as salt: salt) [Example 37, [7-(5-Bromo-pyridin-3-ylmethyl)-7H-pyrrolo[2,3-d]pyrimidin-4-yl]-[2-(3,4-dimethoxy-phenyl)-ethyl]-amine], 119 to 120.4 °C. The same measure for `COc1ccc(CCNc2ncnc3c2c(C)c(C)n3CCCN(C)C)cc1` (as salt: salt) [Example 41, [7-(3-Dimethylamino-propyl)-5,6-dimethyl-7H-pyrrolo[2,3-d]pyrimidin-4-yl]-[2-(4-methoxy-phenyl)-ethyl]-amine]: greater than 250 °C; for `Cc1c(C)n(Cc2ccccc2)c2ncnc(NCCc3ccc(NS(C)(=O)=O)cc3)c12` [Example 5, N-{4-[2-(7-Benzyl-5,6-dimethyl-7H-pyrrolo[2,3-d]pyrimidin-4-ylamino)-ethyl]-phenyl}-methanesulfonamide]: 175.7 to 176.4 °C; for `Cc1c(C)n(Cc2ccccc2)c2ncnc(NCCc3ccc(N4C(=O)c5ccccc5C4=O)cc3)c12` [Example 6, 2-{4-[2-(7-Benzyl-5,6-dimethyl-7H-pyrrolo[2,3-d]pyrimidin-4-ylamino)-ethyl]-phenyl}-isoindole-1,3-dione]: 219 to 221 °C. As for `Cc1c(C)n(Cc2ccccc2)c2ncnc(NCCc3ccc(NC(=O)Nc4ccc(F)cc4F)cc3)c12` [Example 7, 1-{4-[2-(7-Benzyl-5,6-dimethyl-7H-pyrrolo[2,3-d]pyrimidin-4-ylamino)-ethyl]-phenyl}-3-(2,4-difluoro-phenyl)-urea], the figure is 208 to 209.2 °C.

Take `Nc1ccc(CCNc2ncnc3c2ccn3Cc2ccccc2)cc1` [Example 8, [2-(4-Amino-phenyl)-ethyl]-(7-benzyl-7H-pyrrolo[2,3-d]pyrimidin-4-yl)-amine]: the melting point is greater than 260 °C. Consider `Cc1c(C)n(Cc2ccco2)c2ncnc(NCCc3ccc(N)cc3)c12` [Example 10, [2-(4-Amino-phenyl)-ethyl]-(7-furan-2-ylmethyl-5,6-dimethyl-7H-pyrrolo[2,3-d]pyrimidin-4-yl)-amine], for which the melting point was 150 to 151.5 °C.
